Measured values from patent publication US20070179060A1, “6-(Poly-substituted aryl)-4-aminopicolinates and their use as herbicides” (priority 2006, published 2007).

Tests used:
[1] = system: Hordeum vulgare (winter barley); assay: Postemergence herbicidal activity of mixtures in cereal crops; assay type: in vivo; conditions: after 3 weeks
Method: (§1) Seeds of the desired test plant species were planted and reared as described in “Evaluation of Postemergence Herbicidal Safening in Cereal Crops” (section 37).
(§2) Treatments consisted of compound (as listed in Tables 6 and 7), fluroxypyr methylheptyl ester (MHE), and clopyralid monoethanolamine (MEA) salt alone and in combination. Weighed amounts were placed in 25 mL glass vials and dissolved in a volume of 97:3 v/v acetone/DMSO to obtain 4.5 mg ai/mL stock solutions. […] The concentrated stock solutions were diluted to 1.5 mg ai/mL with the addition of 2 volumes of an aqueous mixture containing acetone, water, isopropyl alcohol, DMSO, Agri-dex crop oil concentrate, and Triton® X-77 surfactant in a 64.7:26.0:6.7:2.0:0.7:0.01 v/v ratio. A dilution solution was prepared by mixing 1 volume of 97:3 v/v acetone/DMSO and 2 volumes of an aqueous mixture containing acetone, water, isopropyl alcohol, DMSO, Agri-dex crop oil concentrate, and Triton® X-77 surfactant in a 64.7:26.0:6.7:2.0:0.7:0.01 v/v ratio. Compound requirements are based upon a 12 mL application volume at a rate of 187 L/ha. Spray solutions of fluroxypyr MHE, clopyralid MEA, and experimental compound mixtures were prepared by adding the stock solutions to the appropriate amount of dilution solution to form 12 mL spray solution with active ingredients in two- and three-way combinations. Formulated compounds were applied to the plant material with an overhead Mandel track sprayer equipped with a 8002E nozzles calibrated to deliver 187 L/ha over an application area of 0.503 square meters at a spray height of 18 inches (43 cm) above average plant canope. Control plants were sprayed in the same manner with the solvent blank.
(§3) The treated plants and control plants were placed in a greenhouse as described above and watered by sub-irrigation to prevent wash-off of the test compounds. After 3 weeks the condition of the test plants as compared with that of the control plants was determined visually and scored on a scale of 0 to 100 percent where 0 corresponds to no injury and 100 corresponds to complete kill.
(§4) Colby's equation was used to determine the herbicidal effects expected from the mixtures (Colby, S. R. 1967. Calculation of the synergistic and antagonistic response of herbicide combinations. Weeds 15:20-22.).
(§5) The following equation was used to calculate the expected activity of mixtures containing two active ingredients, A and B: Expected=A+B−(A×B/100) • A=observed efficacy of active ingredient A at the same concentration as used in the mixture. • B=observed efficacy of active ingredient B at the same concentration as used in the mixture.
(§6) The following equation was used to calculate the expected activity of mixtures containing three active ingredients, A, B, and C: Expected=A+B+C−(A×B+B×C+A×C)/100+(A×B×C)/10000 • A=observed efficacy of active ingredient A at the same concentration as used in the mixture. • B=observed efficacy of active ingredient B at the same concentration as used in the mixture. • C=observed efficacy of active ingredient C at the same concentration as used in the mixture.

[2] = system: Triticum aestivum (spring wheat); assay: as above; assay type: in vivo; conditions: after 3 weeks
Method: as §1, §2, §3, §4, §5, §6

[3] = system: Matricaria chamomilla; assay: as above; assay type: in vivo; conditions: after 3 weeks
Method: as §1, §2, §3, §4, §5, §6

[4] = system: Scirpus juncoides; assay: Herbicidal activity in transplanted paddy rice; assay type: in vivo; conditions: Schoenoplectiella juncoides, 504 h, paddy water application, after 3 weeks, read-out: % Control SCPJU
Method: (§7) Weed seeds or nutlets of the desired test plant species were planted in puddled soil (mud) prepared by mixing a non-sterilized mineral soil (28 percent silt, 18 percent clay, and 54 percent sand, with a pH of about 7.3 to 7.8 and an organic matter content of about 1.0 percent) and water at a ratio of 100 kg of soil to 19 L of water. The prepared mud was dispensed in 250 mL aliquots into 480 mL non-perforated plastic pots with a surface area of 91.6 square centimeters leaving a headspace of 3 centimeters in each pot. […] Seedlings at the second or third leaf stage of growth were transplanted into 650 mL of mud contained in 960 mL non-perforated plastic pots with a surface area of 91.6 square centimeters 4 days prior to herbicide application. The paddy was created by filling the 3 centimeter headspace of the pots with water. When required to ensure good germination and healthy plants, a fungicide treatment and/or other chemical or physical treatment was applied. The plants were grown for 4-14 days in a greenhouse with an approximate 14 hour photoperiod which was maintained at about 29° C. during the day and 26° C. during the night. Nutrients were added as Osmocote (17:6:10, N:P:K+minor nutrients) at 2 g per pot. Water was added on a regular basis to maintain the paddy flood, and supplemental lighting was provided with overhead metal halide 1000-Watt lamps as necessary. The plants were employed for testing when they reached the second or third true leaf stage. A weighed amount, determined by the highest rate to be tested, of each test compound was placed in a 120 mL glass vial and was dissolved in 20 mL of acetone to obtain concentrated stock solutions. […] Application rates of ½×, ¼×, ⅛× and 1/16× of the high rate were obtained by injecting an appropriate amount of the stock solution into the aqueous layer of the paddy. Control plants were treated in the same manner with the solvent blank. The treated plants and control plants were placed in a greenhouse as described above and water was added as needed to maintain a paddy flood.

[5] = system: Cyperus difformis; assay: Herbicidal activity in transplanted paddy rice; assay type: in vivo; conditions: Cyperus difformis, 504 h, paddy water application, after 3 weeks, read-out: % Control CYPDI
Method: as §7

[6] = system: rice (Orysa sativa var. Japonica); assay: Herbicidal activity in transplanted paddy rice; assay type: in vivo; conditions: Oryza sativa, 504 h, transplant rice (crop), paddy water application, after 3 weeks
Method: as §7

[7] = system: Echinochloa crus-galli; assay: Herbicidal activity in transplanted paddy rice; assay type: in vivo; conditions: Echinochloa crus-galli, 504 h, paddy water application, after 3 weeks, read-out: % Control ECHCG
Method: as §7

[8] = system: Monochoria vaginalis; assay: Herbicidal activity in transplanted paddy rice; assay type: in vivo; conditions: Pontederia vaginalis, 504 h, paddy water application, after 3 weeks, read-out: % Control MOOVA
Method: as §7

[9] = system: wheat (Triticum aestivum); assay: Postemergence herbicidal activity in cereal crops; assay type: in vivo; conditions: crop, post-emergent, 17.5 g ai/ha, after 20-22 days; for plant injury at 17.5 g/ha: Triticum aestivum, post-emergence, 480 h, read-out: % Control TRZAS
Outline: (§8)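 Greenhouse plants at the second or third true leaf stage are sprayed postemergence by track sprayer delivering 187 L/ha. Spray solution is an acetone/water/isopropanol/DMSO mixture with crop oil concentrate and Triton X-77. Treated plants are kept at about 18 °C day/17 °C night under a ~14 h photoperiod with sub-irrigation; blank-sprayed plants serve as controls.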

[10] = system: Papaver rhoeas; assay: Postemergence herbicidal activity in cereal crops; assay type: in vivo; conditions: post-emergent, 17.5 g ai/ha, after 20-22 days; for pest or weed control at 17.5 g/ha: Papaver rhoeas, post-emergence, 480 h, read-out: % Control PAPRH
Outline: as §8

[11] = system: barley (Hordeum vulare); assay: Postemergence herbicidal activity in cereal crops; assay type: in vivo; conditions: crop, post-emergent, 17.5 g ai/ha, after 20-22 days; for pest or weed control at 17.5 g/ha: Hordeum, post-emergence, 480 h, read-out: % Control HORVS
Outline: as §8

[12] = system: Veronica persica; assay: Postemergence herbicidal activity in cereal crops; assay type: in vivo; conditions: post-emergent, 17.5 g ai/ha, after 20-22 days; for pest or weed control at 17.5 g/ha: Veronica persica, post-emergence, 480 h, read-out: % Control VERPE
Outline: as §8

[13] = system: Lamium purpureum; assay: Postemergence herbicidal activity in cereal crops; assay type: in vivo; conditions: post-emergent, 17.5 g ai/ha, after 20-22 days; for pest or weed control at 17.5 g/ha: Lamium purpureum, post-emergence, 480 h, read-out: % Control LAMPU
Outline: as §8

[14] = system: Galium aparine; assay: Postemergence herbicidal activity in cereal crops; assay type: in vivo; conditions: post-emergent, 17.5 g ai/ha, after 20-22 days; for pest or weed control at 17.5 g/ha: Galium aparine, post-emergence, 480 h, read-out: % Control GALAP
Outline: as §8

[15] = system: lambsquarter (Chenopodium album); assay: Postemergence herbicidal activity; assay type: in vivo; conditions: post-emergent, 140 g ai/ha, after 14 days; for pest or weed control at 140 g/ha: Chenopodium album, post-emergence, 336 h, read-out: % Control CHEAL
Outline: (§9)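 Plants grown 7-21 days in greenhouse (about 15 h photoperiod, 23-29° C day, 22-28° C night) to first or second true leaf stage. Compounds in acetone/water/isopropanol/DMSO carrier with crop oil concentrate and Triton X-155 sprayed overhead at 187 L/ha; controls received solvent blank. Plants sub-irrigated afterwards; dose responses analysed by probit analysis.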

[16] = system: redroot pigweed (Amaranthus retroflexus); assay: Postemergence herbicidal activity; assay type: in vivo; conditions: post-emergent, 140 g ai/ha, after 14 days; for pest or weed control at 140 g/ha: Amaranthus retroflexus, post-emergence, 336 h, read-out: % Control AMARE
Outline: as §9

[17] = system: velvetleaf (Abutilon theophrasti); assay: Postemergence herbicidal activity; assay type: in vivo; conditions: post-emergent, 140 g ai/ha, after 14 days; for pest or weed control at 140 g/ha: Abutilon theophrasti, post-emergence, 336 h, read-out: % Control ABUTH
Outline: as §9

[18] = Table 6, applied alone, 35 g ai/ha
[19] = Table 7, applied alone, 35 g ai/ha
[20] = Table 7, applied alone, 70 g ai/ha

## NCCO.O=C(O)c1nc(Cl)ccc1Cl [Clopyralid MEA, clopyralid monoethanolamine (MEA) salt]
[1]; [18]
  % Control HORVW Ob: 0%
[1]; [19]
  % Control HORVW Ob: 0%
[1]; [20]
  % Control HORVW Ob: 0%
[2]; [18]
  % Control TRZAS Ob: 0%
[2]; [19]
  % Control TRZAS Ob: 0%
[2]; [20]
  % Control TRZAS Ob: 0%
[3]; [18]
  % Control MATCH Ob: 20%
[3]; [19]
  % Control MATCH Ob: 5%
[3]; [20]
  % Control MATCH Ob: 40%

## CNc1c(Cl)ccc(-c2cc(N)c(Cl)c(C(=O)OC)n2)c1F [Compound 38, 4-Amino-3-chloro-6-[4-chloro-2-fluoro-3-(methylamino)phenyl]pyridine-2-carboxylic acid, methyl ester]
[4]; 70 g ai/ha
  pest or weed control at 70 g/ha: 95%
[5]; 70 g ai/ha
  pest or weed control at 70 g/ha: 100%
[6]; 70 g ai/ha
  pest or weed control at 70 g/ha: 0%
[7]; 70 g ai/ha
  pest or weed control at 70 g/ha: 50%
[8]; 70 g ai/ha
  pest or weed control at 70 g/ha: 100%
other
  melting point: 148 to 149 °C
[9]
  plant injury at 17.5 g/ha: 5%
[10]
  pest or weed control at 17.5 g/ha: 100%
[11]
  pest or weed control at 17.5 g/ha: 0%
[12]
  pest or weed control at 17.5 g/ha: 99%
[13]
  pest or weed control at 17.5 g/ha: 95%
[14]
  pest or weed control at 17.5 g/ha: 85%
[15]
  pest or weed control at 140 g/ha: 100%
[16]
  pest or weed control at 140 g/ha: 100%
[17]
  pest or weed control at 140 g/ha: 100%

## CCCCOCCOC(=O)c1nc(-c2ccc(Cl)c(OC)c2F)cc(N)c1Cl [Compound 92, 4-Amino-3-chloro-6-(4-chloro-2-fluoro-3-methoxyphenyl)pyridine-2-carboxylic acid, 2-butoxy-ethyl ester]
[4]; 17.5 g ai/ha
  pest or weed control at 17.5 g/ha: 90%
[5]; 17.5 g ai/ha
  pest or weed control at 17.5 g/ha: 99%
[6]; 17.5 g ai/ha
  pest or weed control at 17.5 g/ha: 0%
[7]; 17.5 g ai/ha
  pest or weed control at 17.5 g/ha: 40%
[8]; 17.5 g ai/ha
  pest or weed control at 17.5 g/ha: 100%
other
  melting point: 72 to 74 °C
[9]
  % Control TRZAS: 0%
[10]
  % Control PAPRH: 95%
[11]
  % Control HORVS: 0%
[12]
  % Control VERPE: 30%
[13]
  % Control LAMPU: 100%
[14]
  % Control GALAP: 99%
[15]
  % Control CHEAL: 100%
[16]
  % Control AMARE: 100%
[17]
  % Control ABUTH: 100%

## COc1c(Br)ccc(-c2cc(N)c(Cl)c(C(=O)O)n2)c1F [Compound 120, 4-Amino-6-(4-bromo-2-fluoro-3-methoxyphenyl)-3-chloropyridine-2-carboxylic acid]
[4]; 35 g ai/ha
  pest or weed control at 35 g/ha: 95%
[5]; 35 g ai/ha
  pest or weed control at 35 g/ha: 100%
[6]; 35 g ai/ha
  pest or weed control at 35 g/ha: 0%
[7]; 35 g ai/ha
  pest or weed control at 35 g/ha: 40%
[8]; 35 g ai/ha
  pest or weed control at 35 g/ha: 100%
other
  melting point: 176 to 177 °C
[9]
  plant injury at 17.5 g/ha: 0%
[10]
  pest or weed control at 17.5 g/ha: 95%
[11]
  pest or weed control at 17.5 g/ha: 0%
[12]
  pest or weed control at 17.5 g/ha: 50%
[13]
  pest or weed control at 17.5 g/ha: 95%
[14]
  pest or weed control at 17.5 g/ha: 80%
[15]
  pest or weed control at 140 g/ha: 95%
[16]
  pest or weed control at 140 g/ha: 90%
[17]
  pest or weed control at 140 g/ha: 100%

## CCCCCCC(C)OC(=O)COc1nc(F)c(Cl)c(N)c1Cl (stereo not drawn) [Fluroxypyr MHE, fluroxypyr methylheptyl ester]
[1]; [18]
  % Control HORVW Ob: 0%
[1]; [19]
  % Control HORVW Ob: 0%
[1]; [20]
  % Control HORVW Ob: 0%
[2]; [18]
  % Control TRZAS Ob: 0%
[2]; [19]
  % Control TRZAS Ob: 0%
[2]; [20]
  % Control TRZAS Ob: 0%
[3]; [18]
  % Control MATCH Ob: 0%
[3]; [19]
  % Control MATCH Ob: 0%
[3]; [20]
  % Control MATCH Ob: 0%
